# Assay results: US12377106B2, “Piperidinylpyrazine-carboxamide compounds for treating and preventing cancer and for degrading BTK” (NURIX THERAPEUTICS, INC., priority 2021, dated 2025)
# Entries after “also recorded” stand apart in the source; their conditions may differ.
# Assays:
# BTK = assay: Flow cytometry assay for BTK degradation in patient circulating B cells (CD19+CD3-), Phase 1a/1b trial; assay type: in vivo, human
# Method: (§1) Compound 149 was administered to human patients in a Phase 1a/lb trial investigating safety and tolerability in relapsed and refractory B cell malignancies. Compound 149 was administered as a once daily oral dose first in an accelerated Phase 1a dose escalation starting at 100 mg on Day 1. The first dose levels are explored in a single patient cohort until a grade 2 adverse event has been observed. Thereafter, a traditional 3+3 escalation design is used. This 100 mg starting dose was predicted to provide similar exposure as that observed in non-human primate studies. Once a dose is selected based on all safety, efficacy, pharmacokinetic, and pharmacodynamic data available, the trial will expand in up to five expansion cohorts.
# […] of Bruton's tyrosine kinase were measured by flow cytometry in circulating B cells, including disease cells and provided in FIG. 2. This mean fluorescence intensity directly correlates with the levels of BTK protein observed in a Western blot. […] The patient's BTK levels start at different levels yet, the treatment results in the same level of degradation by Day 15, which is the first measurement after steady state concentration is achieved.
# The 100 mg patient achieved greater than 80% BTK degradation at steady state. All patients at the 200 mg dose level achieved greater than 90% degradation at steady state.
# The data is summarized in Table 3 below which provides the average percent BTK degradation during the last 2 weeks of the first cycle (namely Days 15, 22, and 29). In Cohort 2 (200 mg), well above 90% of BTK degradation was achieved during the steady state.
# Following informed consent, peripheral blood was obtained from all patients for baseline and post Compound 149 therapy assessment of BTK and Ikaros degradation. Patient blood (5 mL) was drawn and immediately fixed in a 5 mL CytoChex™ BCT tube and stored at ambient temperature until assessment via flow cytometry. Blood samples were analyzed within 3 days post sample collection at Precision for Medicine. Additional blood was also drawn into 8 mL BD Vacutainer® CPT™ Cell Preparation Tube with Sodium Citrate. Peripheral blood mononuclear cells (PBMCs) were processed, and viability frozen according to manufacturer's protocol.
# For flow staining, 1 mL blood was treated with 1×BD PharmLyse to facilitate red blood cell lysing. Remaining leukocytes were washed with staining buffer (SB) containing Dulbecco's Phosphate Buffered Saline (DPBS) without Calcium or Magnesium, 1% bovine serum albumin (BSA), 10 mM HEPES, 1 mM EDTA, and 0.01% sodium azide. Cell pellet was stained with fluorophore-conjugated cell surface markers antibodies against CD45, CD3, CD4, CD8, CD14, CD16, CD19 and CD56 prepared in BD Brilliant Stain buffer for 25 minutes at room temperature.
# Following cell surface staining, cells were washed twice with SB and then fixed and permeabilized for one hour at room temperature with eBioscience FoxP3/Transcription Factor Staining Buffer set according to the manufacturer's instructions. Washed cells were then stained with unconjugated BTK antibody made in 1× Permeabilization buffer) for 30 minutes. This was followed by another 30-minute incubation with anti-rabbit Alexa488 secondary antibody also prepared in 1× Permeabilization buffer for BTK detection. After incubation, the cells were washed twice with 1× Permeabilization Buffer and then resuspended in SB. Control samples containing fluorescence minus two markers (FM2) were used for background controls and were stained for all surface markers in the panel excluding BTK.
# The samples were transferred to BD TruCount tubes before acquisition on a BD LSR Fortessa using predetermined BD FACS Diva software (v8.0) application settings. Data analysis was performed using FlowJo software (v10).
# Single lymphocytes were gated for B cells (CD19+CD3−), and the geometric mean fluorescence intensity (MFI) of BTK was calculated. The MFI of B cells in FM2 control was used to quantify background staining. […]
# Ikaros = target: T1, Ikaros (Homo sapiens, UniProt Q13422+Q96SW2); assay: Ikaros degradation in the patient; assay type: in vivo; conditions: DLBCL patient, 300 mg
# T1 construct: peripheral blood was obtained from all patients for baseline and post Compound 149 therapy assessment of BTK and Ikaros degradation; endogenous in cells; host or cells: peripheral blood cells of a DLBCL patient
# T1 sequence (Q13422 whole entry): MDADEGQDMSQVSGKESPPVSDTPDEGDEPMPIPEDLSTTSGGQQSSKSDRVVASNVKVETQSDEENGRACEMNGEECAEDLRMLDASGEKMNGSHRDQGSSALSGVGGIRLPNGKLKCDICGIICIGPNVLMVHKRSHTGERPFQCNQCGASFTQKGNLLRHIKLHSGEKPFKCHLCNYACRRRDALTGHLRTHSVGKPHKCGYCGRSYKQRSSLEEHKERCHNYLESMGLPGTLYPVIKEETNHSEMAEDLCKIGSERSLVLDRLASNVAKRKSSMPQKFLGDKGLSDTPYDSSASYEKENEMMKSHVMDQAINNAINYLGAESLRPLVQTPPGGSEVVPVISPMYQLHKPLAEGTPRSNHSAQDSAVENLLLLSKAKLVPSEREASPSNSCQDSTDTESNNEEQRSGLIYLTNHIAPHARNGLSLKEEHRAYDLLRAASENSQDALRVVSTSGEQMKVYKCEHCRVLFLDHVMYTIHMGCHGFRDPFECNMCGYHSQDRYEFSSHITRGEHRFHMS
# T1 sequence (Q96SW2 whole entry): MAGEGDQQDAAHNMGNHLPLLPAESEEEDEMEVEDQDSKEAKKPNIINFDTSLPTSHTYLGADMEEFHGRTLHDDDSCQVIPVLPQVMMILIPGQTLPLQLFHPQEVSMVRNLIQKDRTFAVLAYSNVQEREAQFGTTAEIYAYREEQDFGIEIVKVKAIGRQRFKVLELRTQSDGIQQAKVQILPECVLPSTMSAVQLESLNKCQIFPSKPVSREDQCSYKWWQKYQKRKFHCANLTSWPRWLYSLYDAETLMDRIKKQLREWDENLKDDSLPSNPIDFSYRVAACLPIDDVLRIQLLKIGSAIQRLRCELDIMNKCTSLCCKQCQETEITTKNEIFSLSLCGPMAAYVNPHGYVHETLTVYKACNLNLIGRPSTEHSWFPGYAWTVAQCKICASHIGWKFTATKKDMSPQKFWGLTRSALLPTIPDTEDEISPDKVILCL
# T1 sequence (Q16531 whole entry partner): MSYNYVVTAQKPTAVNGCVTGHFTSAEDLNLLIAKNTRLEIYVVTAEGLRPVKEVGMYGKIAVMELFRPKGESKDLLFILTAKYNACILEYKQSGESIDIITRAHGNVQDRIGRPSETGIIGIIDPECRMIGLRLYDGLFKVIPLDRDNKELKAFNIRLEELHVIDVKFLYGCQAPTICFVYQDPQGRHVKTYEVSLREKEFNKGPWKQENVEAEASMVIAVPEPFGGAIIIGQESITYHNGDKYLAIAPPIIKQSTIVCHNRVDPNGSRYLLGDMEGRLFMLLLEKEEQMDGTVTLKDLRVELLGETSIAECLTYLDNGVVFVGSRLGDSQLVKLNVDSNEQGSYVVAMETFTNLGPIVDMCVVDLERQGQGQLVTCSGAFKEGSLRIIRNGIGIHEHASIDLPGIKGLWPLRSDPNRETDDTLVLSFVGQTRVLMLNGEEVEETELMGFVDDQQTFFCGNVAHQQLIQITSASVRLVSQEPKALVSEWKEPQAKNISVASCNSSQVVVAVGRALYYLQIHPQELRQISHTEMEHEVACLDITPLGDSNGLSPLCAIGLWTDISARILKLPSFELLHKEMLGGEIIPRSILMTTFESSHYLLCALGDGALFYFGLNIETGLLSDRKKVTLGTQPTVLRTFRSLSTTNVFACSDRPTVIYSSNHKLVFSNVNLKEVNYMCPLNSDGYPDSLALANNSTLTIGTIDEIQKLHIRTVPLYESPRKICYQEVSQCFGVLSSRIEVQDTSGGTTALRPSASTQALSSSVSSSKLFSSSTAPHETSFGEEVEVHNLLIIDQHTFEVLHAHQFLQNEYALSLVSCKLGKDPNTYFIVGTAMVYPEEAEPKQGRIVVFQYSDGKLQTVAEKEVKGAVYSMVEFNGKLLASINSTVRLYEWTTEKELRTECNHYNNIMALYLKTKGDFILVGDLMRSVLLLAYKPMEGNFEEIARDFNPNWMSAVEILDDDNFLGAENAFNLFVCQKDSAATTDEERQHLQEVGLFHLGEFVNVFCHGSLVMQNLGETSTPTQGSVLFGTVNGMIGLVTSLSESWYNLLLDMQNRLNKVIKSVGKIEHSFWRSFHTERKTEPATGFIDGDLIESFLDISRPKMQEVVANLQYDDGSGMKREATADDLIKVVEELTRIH
# Method: Following informed consent, peripheral blood was obtained from all patients for baseline and post Compound 149 therapy assessment of BTK and Ikaros degradation. Patient blood (5 mL) was drawn and immediately fixed in a 5 mL CytoChex™ BCT tube and stored at ambient temperature until assessment via flow cytometry. Blood samples were analyzed within 3 days post sample collection at Precision for Medicine. Additional blood was also drawn into 8 mL BD Vacutainer® CPT™ Cell Preparation Tube with Sodium Citrate. Peripheral blood mononuclear cells (PBMCs) were processed, and viability frozen according to manufacturer's protocol. The patient's response was checked at 8 weeks and 16 weeks. […] Gradual BTK degradation was observed until day 8 day of receiving the 300 mg dose of Compound 149, wherein the maximum BTK degradation was achieved on the 8th day. Consistent with its design, Compound 149 also degraded Ikaros and Aiolos which is responsible for the compound's immunomodulatory activity. […] In the 16-week assessment image, maximum standard uptake value (Max SUV) reduced from 17.6 at screening to 2.5 at the 16-week assessment time with the Deauville five-point scale (5PS; Barrington et al., 2010, Eur J Nucl Med Mol Imaging 37 (10): 1824-33) reducing from 5 to 2.
# [1] = Plasma concentrations of compound 149 after once daily oral dosing; assay type: in vivo, human; conditions: all patients, once daily oral 100 mg or 200 mg
# Method: as §1
# [2] = test system: novel BTK mutations emerging post BTKi-treatment; assay: Degradation of novel BTK mutations emerging post BTKi-treatment (FIG. 6); assay type: cell-based; conditions: multiple novel BTK mutations emerging post BTKi-treatment
# [3] = average of patients 1, 2, 3, 4, 6 (100 mg and 200 mg)
# [4] = average of patients with data (100 mg and 200 mg)
# [5] = patient 1 (CLL), 100 mg once daily oral
# [6] = patient 2 (CLL), 200 mg once daily oral
# [7] = patient 3 (MCL), 200 mg once daily oral
# [8] = patient 4 (WM), 200 mg once daily oral
# [9] = patient 6 (SLL), 200 mg once daily oral
smiles,measurement,setting,value
NC(=O)c1ncc(N2CCCCC2)nc1Nc1ccc(C2CCN(C[C@@H]3CCN(c4ccc5c(c4)C(=O)N(C4CCC(=O)NC4=O)C5=O)C3)CC2)cc1 (some centres unmarked) [Compound 149],day on which maximum BTK degradation was achieved,"BTK; DLBCL patient, 300 mg, BTK MFI in CD19+ B cells, FIG. 8",8 days
same,duration of BTK degradation,"BTK; DLBCL patient, 300 mg, FIG. 8",sustained through day 29
same,duration of BTK degradation,"BTK; after steady state Cycle 1 Day 15, prior to starting Cycle 2",sustained through Cycle 1 Day 29
same,level of BTK protein in circulating B cells (BTK MFI),"BTK; all patients treated, once daily oral regimen",dramatically decreases the level of BTK protein in all patients treated; also recorded: time-dependent decrease of BTK levels
same,"% BTK Degraded, Day 2, Average",BTK; [3],56.5%
same,"% BTK Degraded, Day 8, Average",BTK; [3],80.4%
same,"% BTK Degraded, Day 22, Average",BTK; [4],92.1%
same,"% BTK Degraded, Day 29, Average",BTK; [4],90.1%
same,"% BTK Degraded, Day 15, Average","BTK; average of patients with data (100 mg and 200 mg), steady state Cycle 1 Day 15",90.1%
same,"BTK Degradation, Day 2",BTK; [5],62.8%
same,"BTK Degradation, Day 8",BTK; [5],76.9%
same,"BTK Degradation, Day 15",BTK; [5],78.0%
same,"BTK Degradation, Day 22",BTK; [5],85.5%
same,"BTK Degradation, Day 29",BTK; [5],82.0%
same,"BTK Degradation, Day 56",BTK; [5],81.4%
same,"BTK Degradation, Avg. Steady State","BTK; patient 1 (CLL), 100 mg once daily oral, average of Days 15, 22 and 29",81.8%
same,"BTK Degradation, Day 2",BTK; [6],75.1%
same,"BTK Degradation, Day 8",BTK; [6],90.5%
same,"BTK Degradation, Day 15",BTK; [6],96.1%
same,"BTK Degradation, Day 22",BTK; [6],95.4%
same,"BTK Degradation, Day 29",BTK; [6],96.1%
same,"BTK Degradation, Day 56",BTK; [6],96.0%
same,"BTK Degradation, Avg. Steady State","BTK; patient 2 (CLL), 200 mg once daily oral, average of Days 15, 22 and 29",95.9%
same,"BTK Degradation, Day 2",BTK; [7],74.0%
same,"BTK Degradation, Day 8",BTK; [7],92.7%
same,"BTK Degradation, Day 15",BTK; [7],94.6%
same,"BTK Degradation, Day 22",BTK; [7],95.4%
same,"BTK Degradation, Day 29",BTK; [7],92.3%
same,"BTK Degradation, Day 56",BTK; [7],94.7%
same,"BTK Degradation, Avg. Steady State","BTK; patient 3 (MCL), 200 mg once daily oral, average of Days 15, 22 and 29",94.1%
same,"BTK Degradation, Day 2",BTK; [8],63.6%
same,"BTK Degradation, Day 8",BTK; [8],56.8%
same,"BTK Degradation, Day 15",BTK; [8],91.5%
same,"BTK Degradation, Avg. Steady State","BTK; patient 4 (WM), 200 mg once daily oral, only Day 15 available",91.5%
same,"BTK Degradation, Day 2",BTK; [9],6.9%
same,"BTK Degradation, Day 8",BTK; [9],85.1%
same,BTK degradation at 24 hours after the initial dose,"BTK; patients 1, 2, 3 and 4, 100 mg or 200 mg",62.8-75.1%
same,BTK degradation at steady state,BTK; the 100 mg patient,greater than 80%
same,Ikaros degradation,Ikaros,degraded
same,steady state plasma concentrations achieved by,[1],≤ 8 days
same,degradation of mutant BTK,[2],degrades multiple novel BTK mutations emerging post BTKi-treatment
